Data: patent US7354904B2, “Bacteriocin inducer peptides” (priority 2005, dated 2008)

What was measured:
Format in all cases: cell-based
S. enteritidis = assay: Spot Test, antagonistic activity of isolated signal peptides; settings: isolated signal peptide
Method: The antagonistic activity of the bacteriocins produced when using the signal peptide and an inducer strain of bacteria against C. jejuni and S. enteritidis was assessed using a Spot Test. The steps included taking various concentrations of pure preparation (μg/ml) of the bacteriocin in approximately 10 microliters of volume plated onto blood-supplemented Campylobacter agar or Nutrient agar (MPA or Meta Peptone Agar) previously seeded with cells of target bacteria. Plates containing cultures of C. jejuni were grown at about 42° C., under microaerobic conditions. Plates containing S. enteritidis were grown at about 37° C. under aerobic conditions. Activity of the bacteriocin was expressed in arbitrary units (AU) per one milliliter of the preparation at which a visible zone of inhibition of the growth of culture appears (Henderson et al., Archives of Biochemistry and Biophysics, Volume 295, 5-12, 1992; herein incorporated by reference). Specific activity can also expressed as arbitrary units per milligram of pure bacteriocin.
Its activity was about 200 AU/ml and its molecular weight was about 2.5 kDa, as determined by SDS-PAGE electrophoresis. The isoelectric point (pI) was about 7.9 (FIGS. 1A and 1B).
Its molecular weight was about 3.1 kDa as measured by SDS-PAGE and the isoelectric point (pI) was about 8.1 (FIGS. 2A and 2B).
Its molecular weight was about 2.1 kDa as determined by SDS-PAGE electrophoresis and its isoelectric point was about 8.9 (FIGS. 3A and 3B).

[1] = test system: Lactobacillus salivarius PVD-32; assay: Influence of signal peptide on bacteriocin OR-7 production, flask culture (fraction protein at 215 nm, activity by Spot Test against C. jejuni and S. enteritidis)
[2] = test system: Enterococcus faecium LWP 50-52; assay: Influence of signal peptide on bacteriocin 50-52 production, flask culture (fraction protein at 215 nm, activity by spot-test against C. jejuni and S. enteritidis)
[3] = test system: Streptococcus cricetus LWP 760; assay: Influence of signal peptide on bacteriocin 760 production, flask culture (fraction protein at 215 nm, activity by Spot Test against C. jejuni and S. enteritidis)
[4] = 10% B-B, producer PVD-32 + inducer LWP-252, LWP 760 peptide 0.1 mg
[5] = LWP 50-52 + LWP 320, LWP 760 peptide 0.1 mg/ml
[6] = LWP 760 + LWP320, 0.001 mg peptide
[7] = LWP 760 + LWP 320, 0.001 mg peptide added after about 2 hours
[8] = LWP 760 + LWP 320, 0.001 mg peptide added after about 4 hours
[9] = LWP 760 + LWP 320, 0.001 mg peptide added after about 6 hours
[10] = LWP 760 + LWP 320, 0.01 mg peptide
[11] = LWP 760 + LWP 320, 0.01 mg peptide added after about 2 hours
[12] = LWP 760 + LWP 320, 0.01 mg peptide added after about 4 hours
[13] = LWP 760 + LWP 320, 0.01 mg peptide added after about 6 hours
[14] = LWP 760 + LWP 320, 0.1 mg peptide
[15] = LWP 760 + LWP 320, 0.1 mg peptide added after about 2 hours
[16] = LWP 760 + LWP 320, 0.1 mg peptide added after about 4 hours
[17] = LWP 760 + LWP 320, 0.1 mg peptide added after about 6 hours
[18] = LWP 760, no inducer, 0.001 mg peptide
[19] = LWP 760, no inducer, 0.001 mg peptide added after about 2 hours
[20] = LWP 760, no inducer, 0.001 mg peptide added after about 4 hours
[21] = LWP 760, no inducer, 0.001 mg peptide added after about 6 hours
[22] = LWP 760, no inducer, 0.01 mg peptide
[23] = LWP 760, no inducer, 0.01 mg peptide added after about 2 hours
[24] = LWP 760, no inducer, 0.01 mg peptide added after about 4 hours
[25] = LWP 760, no inducer, 0.01 mg peptide added after about 6 hours
[26] = LWP 760, no inducer, 0.1 mg peptide
[27] = LWP 760, no inducer, 0.1 mg peptide add after about 6 hours
[28] = LWP 760, no inducer, 0.1 mg peptide added after about 2 hours
[29] = LWP 760, no inducer, 0.1 mg peptide added after about 4 hours

WNKYKTNWVLSVCNTGCACAAVKGLT (listed as Streptococcus cricetus) [LWP 760 Signal Peptide, signal peptide isolated from Streptococcus cricetus LWP 760, stimulates bacteriocin 760 production]
antagonistic activity (S. enteritidis): did not possess antagonistic activity
Activity [1, 4]: 102,400 AU/ml
Protein Concentration [1, 4]: 0.19 Mg/ml
Protein increase vs. Control [1, 4]: 0.95
Specific Activity [1, 4]: 538,947 AU/mg
mg protein/liter [1, 4]: 62.7 mg protein/liter
yield of bacteriocin OR-7 versus the control ([1]; signal peptide of another strain added to PVD-32 + LWP-252): does not increase
Activity [2, 5]: 819,200 AU/ml
Protein Concentration [2, 5]: 0.25 mg/mL
Protein increase vs. Control [2, 5]: 1
Specific Activity [2, 5]: 3,276,800 AU/mg
mg protein/liter [2, 5]: 82.5 mg protein/liter
yield of bacteriocin 50-52 versus the control ([2]; signal peptide of another strain added to LWP 50-52 + LWP 320): did not increase
Activity [3, 6]: 1,638,840 AU/ml
Increase in amount of protein vs. control [3, 6]: 1.06
Protein Concentration [3, 6]: 0.32 mg/mL
Protein Produced from 1 liter Culture Fluid [3, 6]: 105.6 mg
Specific Activity [3, 6]: 5,121,375 Au/mg
Activity [3, 7]: 1,638,840 AU/ml
Increase in amount of protein vs. control [3, 7]: 1.06
Protein Concentration [3, 7]: 0.32 mg/mL
Protein Produced from 1 liter Culture Fluid [3, 7]: 105.6 mg
Specific Activity [3, 7]: 5,121,375 Au/mg
Activity [3, 8]: 1,638,840 AU/ml
Increase in amount of protein vs. control [3, 8]: 1.06
Protein Concentration [3, 8]: 0.32 mg/mL
Protein Produced from 1 liter Culture Fluid [3, 8]: 105.6 mg
Specific Activity [3, 8]: 5,121,375 Au/mg
Activity [3, 9]: 1,638,840 AU/ml
Increase in amount of protein vs. control [3, 9]: 1.06
Protein Concentration [3, 9]: 0.32 mg/mL
Protein Produced from 1 liter Culture Fluid [3, 9]: 105.6 mg
Specific Activity [3, 9]: 5,121,375 Au/mg
Activity [3, 10]: 6,533,600 AU/ml
Increase in amount of protein vs. control [3, 10]: 5.2
Protein Concentration [3, 10]: 1.56 mg/mL
Protein Produced from 1 liter Culture Fluid [3, 10]: 514.8 mg
Specific Activity [3, 10]: 4,201,025 Au/mg
Activity [3, 11]: 6,553,600 AU/ml
Increase in amount of protein vs. control [3, 11]: 5.2
Protein Concentration [3, 11]: 1.56 mg/mL
Protein Produced from 1 liter Culture Fluid [3, 11]: 514.8 mg
Specific Activity [3, 11]: 4,201,025 Au/mg
Activity [3, 12]: 13,107,200 AU/ml
Increase in amount of protein vs. control [3, 12]: 7
Protein Concentration [3, 12]: 2.1 mg/mL
Protein Produced from 1 liter Culture Fluid [3, 12]: 693 mg
Specific Activity [3, 12]: 6,241,523 Au/mg
Protein Produced from 1 liter Culture Fluid ([3]; LWP 760 + LWP 320, 0.01 mg peptide added after about 4 hours, listed as signal peptide from LWP 760): approximately 693 Mg
Activity [3, 13]: 6,553,600 AU/ml
Increase in amount of protein vs. control [3, 13]: 5.2
Protein Concentration [3, 13]: 1.56 mg/mL
Protein Produced from 1 liter Culture Fluid [3, 13]: 514.8 mg
Specific Activity [3, 13]: 4,201,025 Au/mg
Activity [3, 14]: 1,638,840 AU/ml
Increase in amount of protein vs. control [3, 14]: 0.9
Protein Concentration [3, 14]: 0.28 mg/mL
Protein Produced from 1 liter Culture Fluid [3, 14]: 92.4 mg
Specific Activity [3, 14]: 5,853,000 Au/mg
Activity [3, 15]: 1,638,840 AU/ml
Increase in amount of protein vs. control [3, 15]: 1.16
Protein Concentration [3, 15]: 0.35 mg/mL
Protein Produced from 1 liter Culture Fluid [3, 15]: 115.5 mg
Specific Activity [3, 15]: 4,682,400 Au/mg
Activity [3, 16]: 1,638,840 AU/ml
Increase in amount of protein vs. control [3, 16]: 1.16
Protein Concentration [3, 16]: 0.35 mg/mL
Protein Produced from 1 liter Culture Fluid [3, 16]: 115.5 mg
Specific Activity [3, 16]: 4,682,400 Au/mg
Activity [3, 17]: 1,638,840 AU/ml
Increase in amount of protein vs. control [3, 17]: 1.16
Protein Concentration [3, 17]: 0.35 mg/mL
Protein Produced from 1 liter Culture Fluid [3, 17]: 115.5 mg
Specific Activity [3, 17]: 4,682,400 Au/mg
Activity [3, 18]: 1,638,840 AU/ml
Increase in amount of protein vs. control [3, 18]: 1
Protein Concentration [3, 18]: 0.30 mg/mL
Protein Produced from 1 liter Culture Fluid [3, 18]: 99 mg
Specific Activity [3, 18]: 5,462,666 Au/mg
Activity [3, 19]: 1,638,840 AU/ml
Increase in amount of protein vs. control [3, 19]: 1
Protein Concentration [3, 19]: 0.30 mg/mL
Protein Produced from 1 liter Culture Fluid [3, 19]: 99 mg
Specific Activity [3, 19]: 5,462,666 Au/mg
Activity [3, 20]: 1,638,840 AU/ml
Increase in amount of protein vs. control [3, 20]: 1
Protein Concentration [3, 20]: 0.30 mg/mL
Protein Produced from 1 liter Culture Fluid [3, 20]: 99 mg
Specific Activity [3, 20]: 5,462,666 Au/mg
Activity [3, 21]: 1,638,840 AU/ml
Increase in amount of protein vs. control [3, 21]: 1
Protein Concentration [3, 21]: 0.30 mg/mL
Protein Produced from 1 liter Culture Fluid [3, 21]: 99 mg
Specific Activity [3, 21]: 5,462,666 Au/mg
Activity [3, 22]: 1,638,840 AU/ml
Increase in amount of protein vs. control [3, 22]: 1
Protein Concentration [3, 22]: 0.3 mg/mL
Protein Produced from 1 liter Culture Fluid [3, 22]: 99 mg
Specific Activity [3, 22]: 5,462,666 Au/mg
Activity [3, 23]: 1,638,840 AU/ml
Increase in amount of protein vs. control [3, 23]: 1
Protein Concentration [3, 23]: 0.30 mg/mL
Protein Produced from 1 liter Culture Fluid [3, 23]: 99 mg
Specific Activity [3, 23]: 5,462,666 Au/mg
Activity [3, 24]: 1,638,840 AU/ml
Increase in amount of protein vs. control [3, 24]: 1
Protein Concentration [3, 24]: 0.30 mg/mL
Protein Produced from 1 liter Culture Fluid [3, 24]: 99 mg
Specific Activity [3, 24]: 5,462,666 Au/mg
Activity [3, 25]: 1,638,840 AU/ml
Increase in amount of protein vs. control [3, 25]: 1
Protein Concentration [3, 25]: 0.30 mg/mL
Protein Produced from 1 liter Culture Fluid [3, 25]: 99 mg
Specific Activity [3, 25]: 5,462,666 Au/mg
Activity [3, 26]: 1,638,840 AU/ml
Increase in amount of protein vs. control [3, 26]: 1.03
Protein Concentration [3, 26]: 0.31 mg/mL
Protein Produced from 1 liter Culture Fluid [3, 26]: 102.3 mg
Specific Activity [3, 26]: 5,286,580 Au/mg
Activity [3, 27]: 1,638,840 AU/ml
Increase in amount of protein vs. control [3, 27]: 1.03
Protein Concentration [3, 27]: 0.31 mg/mL
Protein Produced from 1 liter Culture Fluid [3, 27]: 102.3 mg
Specific Activity [3, 27]: 5,286,580 Au/mg
Activity [3, 28]: 1,638,840 AU/ml
Increase in amount of protein vs. control [3, 28]: 1.03
Protein Concentration [3, 28]: 0.31 mg/mL
Protein Produced from 1 liter Culture Fluid [3, 28]: 102.3 mg
Specific Activity [3, 28]: 5,286,580 Au/mg
Increase in amount of protein vs. control [3, 29]: 1.03
Protein Concentration [3, 29]: 0.31 mg/mL
Protein Produced from 1 liter Culture Fluid [3, 29]: 102.3 mg
Specific Activity [3, 29]: 5,286,580 Au/mg
